The values below come from patent publication US6855309B2, “Cascade polymer bound complexing compounds, their complexes and conjugates, processes for their production, and pharmaceutical agents containing them” (Schering, AG, priority 1989, dated 2005).

As a reminder, the LD50 is the dose at which mortality reaches 50%. Lower therefore signals a more toxic substance.

For data set [1] the following is noted: rat, in vivo; cited from earlier work.
The conditions of data set [2]: rat, in vivo; cited from earlier work. This is another data set of the same source.
The next data set is described as follows: Osmolality. It is filed as physicochemical. The settings on record: 0.5 mol/l at 37° C.
Data set [3] can be described thus: Concentration-time curve in blood after intravenous administration in rats. The data set is classed as in vivo. The settings on record: 0.2 mmol/kg intravenous.
For the next data set, the system named is mice. As to the kind of experiment: LD50 i.v. in mice. The data set is classed as in vivo.
For data set [4] the following is noted: in vivo, cited from earlier work.

Where two headings read alike, the source gives them in different places.

Take polylysine-GdDTPA: in data set [1], the route of elimination entry is reported as “eliminated unchanged by glomerular filtration via the kidneys”.
Albumin-GdDTPA: in data set [2], the dose eliminated is 20 % of the dose.
As for `CNC[C@H](O)[C@@H](O)[C@H](O)[C@H](O)CO.CNC[C@H](O)[C@@H](O)[C@H](O)[C@H](O)CO.O=C([O-])CN(CCN(CC(=O)[O-])CC(=O)O)CCN(CC(=O)[O-])CC(=O)O.[Gd+3]` [Magnevist, GdDTPA/dimeglumine], the Osmolality in “Osmolality” is 1.96 osmol/kg. The distribution space result in data set [3] was “distributed in the extracellular space”. This compound also came in with an LD50 in the data set with mice of no more than 10 mmol/kg. The route of elimination entry in data set [4] (iv) is “eliminated, upon intravenous injection, by way of the kidneys”. Besides, the “distribution after intravenous administration” value in data set [4] is “distributed after intravenous administration uniformly between the vasal and interstitial spaces”.
